# Experimental data reported in patent US6353024B1, “Method for preventing and treating arthritis, osteo-traumatic pain, and neuralgias with trimebutine” (Warner-Lambert Company, priority 2000, dated 2002).
# Columns and labels:
# [1] = volunteers, tablets of 900 mg of trimebutine, oral
# [2] = tested on: sodium current of DRG neurons; experiment: whole cell patch clamp, sodium currents in DRG neurons; format: cell-based, rat
# [3] = tested on: unilateral peripheral mononeuropathy; experiment: rat mononeuropathy, vocalization threshold to paw pressure
# [4] = tested on: streptozocin-induced hyperalgesia; experiment: streptozocin-induced diabetic rats, tail immersion test; format: in vivo, rat; conditions: single dose 30 mg/kg s.c., 30 min or 60 min before tail immersion test, water 44° C.
# Protocol: FIG. 9: Effect of TMB in diabetic rats.
# Test is carried out with male Sprague Dawley rats (Iffa-Credo) weighing 160-180 grams on arrival. […] Food and water are provided ad libidum.
# Animals are intraperitoneally injected with streptozocin 75 mg/kg. Control animals are given vehicle in the same conditions. Diabetes are confirmed once a week after injection by measurement of tail vein blood glucose levels with Boehriger glycemnia test. Only animals with a final glucose level[…] are included in the study.
# The tail of the rat is immersed in a water bath at 44° C. Nociceptive reaction is defined as the reaction time (seconds) before the tail withdrawal. Results are expressed as the mean+/−SEM and analysed by a Student's t test after an analysis of variance (Anova one way)
# formalin induced pain = experiment: formalin-induced pain; conditions: s.c., 30 min before formalin injection in the paw
compound,measurement,setting,value
"CCC(COC(=O)c1cc(OC)c(OC)c(OC)c1)(c1ccccc1)N(C)C.O=C(O)/C=C\C(=O)O (racemic) [trimebutine, 2-dimethylamino-2-phenylbutyl 3,4,5-trimethoxybenzoate hydrogen maleate]",time of maximal plasma concentrations,[1],1 h
same,unblocking rate koff,[2],29 10^−3 s^−1
same,time constant τoff of recovery from block,[2]; n=6,34 ± 4 s
"CC[C@](COC(=O)c1cc(OC)c(OC)c(OC)c1)(NC)c1ccccc1 [(S)-Nor-TMB, (S)-N-desmethyl trimebutine]",antinociceptive effect in terms of amplitude and duration of action,[3]; 3 and 10 mg/kg s.c.,superior to that of morphine at 1 mg/kg i.v.
same,antinociceptive effect in the contralateral paw,[3]; s.c.,only at the highest dose (10 mg/kg)
same,dose from which increase of the vocalization pressure threshold is present,[3]; s.c.,≥ 1 mg/kg
same,antinociceptive effect in the nerve-injured paw,"[3]; s.c., three doses",significant at all the three doses tested
same,reaction time of tail withdrawal,[4],the same as in control (non diabetic) rats
"CCC(COC(=O)c1cc(OC)c(OC)c(OC)c1)(NC)c1ccccc1 (stereo not drawn) [Nor-TMB, N-desmethyl trimebutine]","ED50, formalin induced pain",formalin induced pain,17 mg/kg
